Target: T1, BgaP β-galactosidase
T1 construct: recombinant full-length, 675 amino acids (GenBank XED97098)
Test: inhibition of ONPG hydrolysis by purified enzyme, […] °C, pH […]; Lineweaver-Burk
Type: biochemical, Paenibacillus sp. 8

Row | SMILES | Ki
1 | OC[C@H]1OC(O)[C@H](O)[C@@H](O)[C@@H]1O (some centres unmarked) [glucose] | 27.3 mM
2 | OC[C@H]1OC(O)[C@H](O)[C@@H](O)[C@H]1O (some centres unmarked) [galactose] | 6.99 mM
